Assay results reported in US20230157996A1, “SMALL-MOLECULE INHIBITOR TARGETING EB VIRUS NUCLEAR ANTIGEN PROTEIN, PREPARATION METHOD AND USE THEREOF” (priority 2020, published 2023).
Like-named read-outs stand apart in the source and are kept apart here.

Key:
C666-1 cells [1] = experiment: C666-1 cell viability, EC50 from 8-point dilution (Resazurin); assay type: cell-based; details: Homo sapiens, C6661, 72 h, 100-0.78 μmol/L, read-out: EC50 Quantitation
Protocol: In order to assess the effect of the EBNA1 inhibitor at the cellular level, the cytotoxicity assay was performed. The EBNA1 inhibitor selectively killed EBV-positive cell lines ([…]-1 cells), but had no toxicity to EBV-negative cell lines (HONE1 cells and HK1 cells). In the test, 100 μL different cell lines were inoculated in a transparent 96-well plate, each well containing 5×10^3 […]-1 cells. After the cells were cultured in an incubator with 5% carbon dioxide at 37° C. for 24 hours, 10 μL compound at a concentration range from 1 mmol/L to 7.8 μmol/L was added into each well (8 points, 2-fold dilution, the final concentration was 100-0.78 μmol/L), and treated in the incubator with carbon dioxide at 37° C. for 72 hours. The cell viability was assessed using a redox indicator Resazurin. Specifically, 10 μL Resazurin at a concentration of 600 μmol/L was added into each well, and incubated at 37° C. for 3 hours, and a Tecan microplate reader was used to detect the fluorescence signal at an excitation wavelength of 560 nm and an emission wavelength of 590 nm. A software was used to fit the inhibition curve and calculate the concentration for 50% of maximal effect (EC50). The selectivity of compound activity was assessed by comparing the EC50 of EBV-positive and EBV-negative cell lines.

C666-1 cells [2] = experiment: C666-1 cell viability single concentration (50 μM) inhibition rate (Resazurin); assay type: cell-based; details: Homo sapiens, C6661, 72 h
Summary of the method: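 EBV-positive C666-1 cells (5×10^3/well), pre-cultured 24 h, were exposed to compound at 50 μmol/L final for 72 h at 37° C, 5% CO2, in duplicate. Viability by resazurin (3 h, ex 560/em 590 nm); inhibition rate computed relative to DMSO control and medium-only blank.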

[3] = 50 μM compound, 72 hours, C666-1 cells, read-out: C666-1 cell viability single concentration (50 μM) inhibition rate, Ratio* (Inh %)
[4] = C666-1 cells, single concentration, read-out: Inhibition Rate (Inh %)
[5] = read-out: C666-1 cell viability single concentration (50 μM) inhibition rate, Ratio* (Inh %)

| SMILES | inhibition at 50 µM (C666-1 cells [2]; [3]) [%] | other results |
| --- | --- | --- |
| COC(=O)c1cccc(N2CC(OC(=O)Nc3ccc(OC)cc3OC)C2)c1-n1cccc1 [Example 146, Methyl 3-(3-(((2,4-dimethoxyphenyl)carbamoyl)oxy)azetidin-1-yl)-2-(1H-pyrrol-1-yl)benzoate] | 10 to 30 | EC50 (C666-1 cells [1]): > 100 µM; inhibition at 50 µM (C666-1 cells [2]; [4]): 10 to 30% |
| COC(=O)c1cccc(N2CC(OC(=S)Nc3ccc(Cl)cc3)C2)c1-n1cccc1 [Example 147, Methyl 3-(3-(((4-chlorophenyl)thiocarbamoyl)oxy)azetidin-1-yl)-2-(1H-pyrrol-1-yl)benzoate] | 30 to 50 | EC50 (C666-1 cells [1]): 50 to 75 µM; inhibition at 50 µM (C666-1 cells [2]; [4]): 30 to 50% |
| COC(=O)c1cccc(N2CC(OC(=O)Nc3ccc(Oc4ccccc4)cc3)C2)c1-n1cccc1 [Example 152, Methyl 3-(3-(((4-phenoxyphenyl)carbamoyl)oxy)azetidin-1-yl)-2-(1H-pyrrol-1-yl)benzoate] | < 10 | EC50 (C666-1 cells [1]): > 100 µM; inhibition at 50 µM (C666-1 cells [2]; [4]): < 10% |
| COC(=O)c1cccc(N2CC(S(=O)(=O)c3ccccc3)C2)c1-n1cccc1 [Example 356, Methyl 3-(3-(phenylsulfonyl)azetidin-1-yl)-2-(1H-pyrrol-1-yl)benzoate] | < 10 | – |
| COC(=O)c1cccc(N2CC(S(=O)(=O)c3ccc(CO)cc3)C2)c1-n1cccc1 [Example 357, Methyl 3-(3-((4-(hydroxymethyl)phenyl)sulfonyl)azetidin-1-yl)-2-(1H-pyrrol-1-yl)benzoate] | < 10 | – |
| COC(=O)c1cccc(N2CC(Oc3ccc(COc4cncc(F)c4)cc3)C2)c1-n1cccc1 [Example 358, Methyl 3-(3-(4-(((5-fluoropyridin-3-yl)oxy)methyl)phenoxy)azetidin-1-yl)-2-(1H-pyrrol-1-yl)benzoate] | 10 to 30 | – |
| O=C(O)c1cccc(N2CC(Oc3ccc(COc4cncc(F)c4)cc3)C2)c1-n1cccc1 [Example 359, 3-(3-(4-(((5-fluoropyridin-3-yl)oxy)methyl)phenoxy)azetidin-1-yl)-2-(1H-pyrrol-1-yl)benzoic acid] | < 10 | – |
| COC(=O)c1cccc(N2CC(Oc3ccc(COc4cncnc4)cc3)C2)c1-n1cccc1 [Example 360, Methyl 3-(3-(4-((pyrimidin-5-yl-oxy)methyl)phenoxy)azetidin-1-yl)-2-(1H-pyrrol-1-yl)benzoate] | < 10 | – |
| O=C(O)c1cccc(N2CC(Oc3ccc(COc4cncnc4)cc3)C2)c1-n1cccc1 [Example 361, 3-(3-(4-((pyrimidin-5-yl-oxy)methyl)phenoxy)azetidin-1-yl)-2-(1H-pyrrol-1-yl)benzoic acid] | < 10 | – |
| COC(=O)c1cccc(N2CC(Oc3ccc(CNc4ccccc4)cc3)C2)c1-n1cccc1 [Example 362] | < 10 | – |
| O=C(O)c1cccc(N2CC(Oc3ccc(CNc4ccccc4)cc3)C2)c1-n1cccc1 [Example 363] | < 10 | – |
| COC(=O)c1cccc(N2CC(Oc3ccc(CNCc4ccccc4)cc3)C2)c1-n1cccc1 [Example 364] | < 10 | – |
| O=C(O)c1cccc(N2CC(Oc3ccc(CNCc4ccccc4)cc3)C2)c1-n1cccc1 [Example 365] | < 10 | – |
| COCCOCc1ccc(OC2CN(c3cccc(C(=O)OC)c3-n3cccc3)C2)cc1OCCOC [Example 366, Methyl 3-(3-(3-(2-methoxyethoxy)-4-((2-methoxyethoxy)methyl)phenoxy)azetidin-1-yl)-2-(1H-pyrrol-1-yl)benzoate] | 10 to 30 | – |
| COCCOCc1ccc(OC2CN(c3cccc(C(=O)O)c3-n3cccc3)C2)cc1OCCOC [Example 367, 3-(3-(3-(2-methoxyethoxy)-4-((2-methoxyethoxy)methyl)phenoxy)azetidin-1-yl)-2-(1H-pyrrol-1-yl)benzoic acid] | < 10 | – |
| N#CCCNC(=O)c1cccc(N2CC(Oc3ccc(CO)cc3)C2)c1-n1cccc1 [Example 368, N-(2-cyanoethyl)-3-(3-(4-(hydroxymethyl)phenoxy)azetidin-1-yl)-2-(1H-pyrrol-1-yl)benzamide] | 10 to 30 | – |
| CS(=O)(=O)NC(=O)c1cccc(N2CC(Oc3ccc(CO)cc3)C2)c1-n1cccc1 [Example 369, N-methylsulfonyl-(3-(3-(4-(hydroxymethyl)phenoxy)azetidin-1-yl)-2-(1H-pyrrol-1-yl))benzamide] | < 10 | – |
| COCCOCc1ccc(OC2CN(c3cccc(C(=O)OC)c3-n3cccc3)C2)cc1 [Example 370] | 10 to 30 | – |
| COCCOCc1ccc(OC2CN(c3cccc(C(=O)O)c3-n3cccc3)C2)cc1 [Example 371] | 10 to 30 | – |
| COC(=O)c1cccc(N2CC(Oc3ccc(COCCO)cc3)C2)c1-n1cccc1 [Example 372] | 10 to 30 | – |
| O=C(O)c1cccc(N2CC(Oc3ccc(COCCO)cc3)C2)c1-n1cccc1 [Example 373] | < 10 | – |

| SMILES | inhibition at 50 µM (C666-1 cells [2]; [3]) [%] | other results |
| --- | --- | --- |
| COC(=O)c1cccc(N2CC(Oc3ccc(COCCNC(C)=O)cc3)C2)c1-n1cccc1 [Example 374] | 10 to 30 | – |
| COC(=O)c1cccc(N2CC(Oc3ccc(COC4CCOC4)cc3)C2)c1-n1cccc1 (stereo not drawn) [Example 375] | < 10 | – |
| O=C(O)c1cccc(N2CC(Oc3ccc(COC4CCOC4)cc3)C2)c1-n1cccc1 (stereo not drawn) [Example 376] | 10 to 30 | – |
| COC(=O)c1cccc(N2CC(Oc3ccc(COC4COC4)cc3)C2)c1-n1cccc1 [Example 377, Methyl 3-(3-(4-((oxetanyl-3-oxy)methyl)phenoxy)azetidin-1-yl)-2-(1H-pyrrol-1-yl)benzoate] | > 50 | – |
| COC(=O)c1cccc(N2CC(Oc3ccc(COC4CCN(C(C)=O)CC4)cc3)C2)c1-n1cccc1 [Example 378] | < 10 | – |
| O=C(O)c1cccc(C#CN2Cc3ccccc3S2(=O)=O)c1-n1cccc1 [Example 379] | > 50 | – |
| Cc1ccc(S(=O)(=O)N(C#Cc2cccc(C(=O)O)c2-n2cccc2)Cc2ccccc2)cc1 [Example 380, 3-(((N-benzyl-4-methylphenyl)sulfonamido)ethynyl)-2-(1H-pyrrol-1-yl)benzoic acid] | < 10 | – |
| CS(=O)(=O)N(C#Cc1cccc(C(=O)O)c1-n1cccc1)Cc1ccccc1 [Example 382, Lithium 3-((N-benzylmethylsulfonamido)ethynyl)-2-(1H-pyrrol-1-yl)benzoate] | – | inhibition at 50 µM (C666-1 cells [2]; [5]): < 10% |
| Cc1ccc(S(=O)(=O)N(C)C#Cc2cccc(C(=O)O)c2-n2cccc2)cc1 [Example 384] | < 10 | – |
| COC(=O)c1cccc(C#CN(Cc2ccc(OC)cc2)S(=O)(=O)c2ccc(C)cc2)c1-n1cccc1 [Example 385] | 10 to 30 | – |
| COc1ccc(CN(C#Cc2cccc(C(=O)O)c2-n2cccc2)S(=O)(=O)c2ccc(C)cc2)cc1 [Example 386] | – | inhibition at 50 µM (C666-1 cells [2]; [5]): < 10% |
| COC(=O)c1cccc(C#CN(Cc2cccnc2)S(=O)(=O)c2ccc(C)cc2)c1-n1cccc1 [Example 387] | > 50 | – |
| O=C(NCc1ccco1)c1cccc(N2CC(Oc3ccc(CO)cc3)C2)c1-n1cccc1 [Example 388, N-(furan-2-yl-methyl)-3-(3-(4-(hydroxymethyl)phenoxy)azetidin 1-yl)-2-(1H-pyrrol-1-yl)benzamide] | < 10 | – |
| COC(=O)c1cccc(C#CN(Cc2ccncc2)S(=O)(=O)c2ccc(C)cc2)c1-n1cccc1 [Example 389] | > 50 | – |
| Cc1ccc(S(=O)(=O)N(C#Cc2cccc(C(=O)O)c2-n2cccc2)Cc2ccncc2)cc1 [Example 390] | – | inhibition at 50 µM (C666-1 cells [2]; [5]): 10 to 30% |
| COC(=O)c1cccc(C2CC2c2ccccc2)c1N (stereo not drawn) [Example 391, Methyl 2-amino-3-(2-phenylcyclopropyl)benzoate] | < 10 | – |
| Nc1c(C(=O)O)cccc1C1CC1c1ccccc1 (stereo not drawn) [Example 392, 2-amino-3-(2-phenylcyclopropyl)benzoic acid] | < 10 | – |
| O=C(O)c1cccc(C2CC2c2ccccc2)c1-n1cccc1 (stereo not drawn) [Example 393, 3-(2-phenylcyclopropyl)-2-(1H-pyrrol-1-yl)benzoic acid] | < 10 | – |
| O=C(O)c1cccc(N2CC(Oc3ccc(COC4CCOCC4)cc3)C2)c1-n1cccc1 [Example 394, 2-(1H-pyrrol-1-yl)-3-(3-(4-(((tetrahydro-2H-pyran-4-yl)oxy)methyl)phenoxy)azetidin-1-yl)benzoic acid] | < 10 | – |
| COC(=O)c1cccc(N2CC(Oc3ccc(CO)cc3)C2)c1-c1cc2ccccc2s1 [Example 395, Methyl 2-(benzo[b]thiophen-2-yl)-3-(3-(4-(hydroxymethyl)phenoxy)azetidin-1-yl)benzoate] | 10 to 30 | – |
| CN(C)CCNC(=O)c1cccc(N2CC(Oc3ccc(CO)cc3)C2)c1-n1cccc1 [Example 396, N-(2-dimethylamino)ethyl-3-(3-(4-(hydroxymethyl)phenoxy)azetidin-1-yl)-2-(1H-pyrrol-1-yl)benzamide] | < 10 | – |
